According to US10017817B2, “Skin activation by acceleration of PDGF-BB activity” (Shiseido Company, Ltd., priority 2010, dated 2018):

Columns and labels:
[1] = tested on: PDGF-BB expression in human vascular endothelial cells HUVEC; assay: Evaluation of PDGF-B production accelerating action in vascular endothelial cells (ELISA and quantitative RT-PCR); format: cell-based; settings: retinoic acid at 1 μm or 10 μm vs DMSO solvent control, cultured 2 days, PDGF-BB in culture supernatant by ELISA and PDGF-B mRNA by quantitative PCR (FIG. 8)
Description: Evaluation of PDGF-B Production Accelerating Action in
Vascular Endothelial Cells
Human vascular endothelial cells HUVEC were sub-cultured in EGM-2 medium (Sanko Junyaku Co., Ltd.), and the fourth generation cells were suspended in Humedia-EG2 medium not containing VEGF-A (Kurabo Industries Ltd.), followed by disseminating in a collage-coated 24-well multiplate (Asahi Glass Co., Ltd.) at a ratio of 20,000 cells and culturing for 3 to 5 days at 37° C. until the cells reached confluence in the presence of 5% CO2. After replacing the medium with Humedia-EG2 medium (Kurabo Industries Ltd.) containing retinoic acid at 1 μm or 10 μm or DMSO used as a solvent control, culturing was further continued for 2 days. Following completion of culturing, the culture supernatant was recovered and PDGF-BB was quantified in accordance with the protocol provided using Human PDGF-BB Quantikine ELISA Kit (R&D Systems Inc.). […] One-step quantitative RT-PCR was then carried out on the PDGF-B gene for each sample using an equal volume of mRNA as template, using the primer pair of SEQ ID NO: 9 and SEQ ID NO: 10, and using QuantiFast SYBR Green RT-PCR Kit (Qiagen Inc.) for the reaction reagent and LightCycler (Roche Diagnostics GmbH) for the reaction apparatus. […]

[2] = tested on: adipose-derived mesenchymal stem cells MSC; assay: Evaluation of migration ability of mesenchymal stem cells (cell insert assay); format: cell-based; settings: 5 ng/ml to 30 ng/ml in StemPro serum-free MSC medium; overnight; in comparison with PDGF-AA and PDGF-AB (FIG. 2)
Description: Evaluation of Migration Ability
Commercially available adipose-derived mesenchymal stem cells MSC were purchased and sub-cultured in MesenPro mesenchymal stem cell medium (Invitrogen Corp.). Then, PDGF-AA, PDGF-AB or PDGF-BB (R&D Systems Inc.) was added to StemPro serum-free MSC medium (Invitrogen Corp.) in 24-well culture plates at a concentration of 5 ng/ml to 30 ng/ml, and fibronectin-coated cell inserts (BD Bioscience Inc.) were placed thereon followed by seeding 50,000 MSC suspended in StemPro medium. After culturing overnight in a CO2 incubator, the culture fluid was removed by aspiration. Thereafter, the cell inserts were immersed for 10 minutes in Hoechist 33258-PBS solution, and the nuclei of cells adhered to the cell insert were stained. After washing with PBS, the backs of the cell inserts were observed under a fluorescence microscope and images were captured. Five random images of each cell insert were captured followed by counting the number of cells that transferred to the cell insert.

Molecule | acceleration of expression of PDGF-BB [1] | acceleration of expression of PDGF-BB ([1]; listed as retinoic acid) | migration ability of mesenchymal stem cells [2]
CC1=C(/C=C/C(C)=C/C=C/C(C)=C/C(=O)O)C(C)(C)CCC1 [tretinoin, all-trans retinoic acid] | concentration-dependent activity | accelerates expression of PDGF-BB | 
PDGF-BB: platelet-derived growth factor-BB protein (R&D Systems Inc.), homodimer of the PDGF B chain (protein, UniProt P01127 82-190, looked up, homodimer, platelet-derived growth factor-BB protein (R&D Systems Inc.), homodimer of the PDGF B chain) Platelet-derived growth …: SLGSLTIAEPAMIAECKTRTEVFEISRRLIDRTNANFLVWPPCVEVQRCSGCCNNRNVQCRPTQVQLRPVQVRKIEIVRKKPIFKKATVTLEDHLACKCETVAAARPVT |  |  | significantly enhance the migration ability of stem cells
